Patent US10370343B2, “[6,6] Fused bicyclic HDAC8 inhibitors” (FORMA Therapeutics, Inc., priority 2015, dated 2019)

Molecular target: T1, Recombinant N-terminal GST tag full-length human HDAC8 (Homo sapiens, UniProt Q9BY41)
T1 construct: Recombinant N-terminal GST tag full-length human HDAC8; purchased SignalChem H90-30G-1000; host or cells: baculovirus in Sf9 insect cells
T1 sequence (Q9BY41 1-377): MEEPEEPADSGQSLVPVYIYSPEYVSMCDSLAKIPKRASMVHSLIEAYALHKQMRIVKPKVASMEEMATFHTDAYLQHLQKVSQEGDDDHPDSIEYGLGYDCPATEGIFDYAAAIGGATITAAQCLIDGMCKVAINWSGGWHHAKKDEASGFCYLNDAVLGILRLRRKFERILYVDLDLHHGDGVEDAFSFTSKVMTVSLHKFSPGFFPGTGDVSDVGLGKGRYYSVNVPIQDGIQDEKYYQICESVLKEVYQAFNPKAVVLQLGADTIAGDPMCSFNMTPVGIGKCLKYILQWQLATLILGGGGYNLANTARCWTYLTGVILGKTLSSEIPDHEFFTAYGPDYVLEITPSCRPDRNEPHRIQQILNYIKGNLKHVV
Experiment: HDAC8 probe binding assay, time resolved fluorescence (TRF) format
Settings: compounds grouped by IC50 range (Table 2)
Protocol: The HDAC8 probe binding assay was performed using a time resolved fluorescence (TRF) assay format. Recombinant N-terminal GST tag full-length human HDAC8 was expressed and purified from baculovirus in Sf9 insect cells (SignalChem, #[…]-1000). […] Plates were incubated for 16 hours at room temperature before time resolved fluorescence was read on the Envision (Excitation at 340 nm, and Emission at 485 nm and 535 nm, Perkin Elmer). Data from HDAC8 Assays were reported as percent inhibition (inh) compared with control wells based on the following equation: % inh=1-((FLU-AveLow)/(AveHigh-AveLow)) where FLU=measured time resolved fluorescence. AveLow=average time resolved fluorescence of no enzyme control (n=32). AveHigh=average time resolved fluorescence of DMSO control (n=32). IC50 values were determined by curve fitting of the standard 4 parameter logistic fitting algorithm included in the Activity Base software package: IDBS XE Designer Model205. Data is fitted using the Levenburg Marquardt algorithm. Ranges of IC50 values for compounds of the invention are disclosed in Table 2: Table 2. provides the compounds arranged according to […] determined in a time resolved fluorescence (TRF) assay. The compounds are separated into four groups: […]

Row | IC50 [nM] | Compound
1 | ≤ 25 | O=C(NO)c1ccc2c(c1)N(Cc1ccc(C(F)(F)F)c(F)c1)C(=O)CO2 [Compound I-266, 4-(3-fluoro-4-(trifluoromethyl)benzyl)-N-hydroxy-3-oxo-3,4-dihydro-2H-benzo[b][1,4]oxazine-6-carboxamide]
2 | ≤ 25 | O=C(NO)c1ccc2c(c1)N(Cc1nc3ccc(Cl)cc3o1)C(=O)CO2 [Compound I-287, 4-((6-chlorobenzo[d]oxazol-2-yl)methyl)-N-hydroxy-3-oxo-3,4-dihydro-2H-benzo[b][1,4]oxazine-6-carboxamide]
3 | ≤ 25 | O=C(NO)c1ccc2c(c1)N(Cc1nc3ccccc3s1)C(=O)CO2 [Compound I-289, 4-(benzo[d]thiazol-2-ylmethyl)-N-hydroxy-3-oxo-3,4-dihydro-2H-benzo[b][1,4]oxazine-6-carboxamide]
4 | ≤ 25 | CC1(C)Oc2ccc(C(=O)NO)cc2N(Cc2nc3ccc(F)cc3o2)C1=O [Compound I-291, 4-((6-fluorobenzo[d]oxazol-2-yl)methyl)-N-hydroxy-2,2-dimethyl-3-oxo-3,4-dihydro-2H-benzo[b][1,4]oxazine-6-carboxamide]
5 | ≤ 25 | CC1(C)Oc2ccc(C(=O)NO)cc2N(Cc2nc3ccc(Cl)cc3o2)C1=O [Compound I-294, 4-((6-chlorobenzo[d]oxazol-2-yl)methyl)-N-hydroxy-2,2-dimethyl-3-oxo-3,4-dihydro-2H-benzo[b][1,4]oxazine-6-carboxamide]
6 | 25 to 100 | CC1(C)Oc2ccc(C(=O)NO)cc2N(Cc2nc3ccccc3s2)C1=O [Compound I-295, 4-(benzo[d]thiazol-2-ylmethyl)-N-hydroxy-2,2-dimethyl-3-oxo-3,4-dihydro-2H-benzo[b][1,4]oxazine-6-carboxamide]
7 | 25 to 100 | CC1(C)Oc2ccc(C(=O)NO)cc2N(CCCc2ccccc2)C1=O [Compound I-298, N-hydroxy-2,2-dimethyl-3-oxo-4-(3-phenylpropyl)-3,4-dihydro-2H-benzo[b][1,4]oxazine-6-carboxamide]
8 | 25 to 100 | CC1(C)Oc2ccc(C(=O)NO)cc2N(Cc2c(Cl)cccc2Cl)C1=O [Compound I-299, 4-(2,6-dichlorobenzyl)-N-hydroxy-2,2-dimethyl-3-oxo-3,4-dihydro-2H-benzo[b][1,4]oxazine-6-carboxamide]
9 | 25 to 100 | CC1(C)Oc2ccc(C(=O)NO)cc2N(Cc2cccc(C(F)(F)F)c2)C1=O [Compound I-300, N-hydroxy-2,2-dimethyl-3-oxo-4-(3-(trifluoromethyl)benzyl)-3,4-dihydro-2H-benzo[b][1,4]oxazine-6-carboxamide]
10 | 25 to 100 | CC1(C)Oc2ccc(C(=O)NO)cc2N(Cc2ccccc2OC(F)(F)F)C1=O [Compound I-302, N-hydroxy-2,2-dimethyl-3-oxo-4-(2-(trifluoromethoxy)benzyl)-3,4-dihydro-2H-benzo[b][1,4]oxazine-6-carboxamide]
11 | 25 to 100 | C[C@@H](c1ccccc1)N1C(=O)C(C)(C)Oc2ccc(C(=O)NO)cc21 [Compound I-303, (S)-N-hydroxy-2,2-dimethyl-3-oxo-4-(1-phenylethyl)-3,4-dihydro-2H-benzo[b][1,4]oxazine-6-carboxamide]
12 | 25 to 100 | CC1(C)Oc2ccc(C(=O)NO)cc2N(Cc2ccc(C(F)(F)F)cc2)C1=O [Compound I-305, N-hydroxy-2,2-dimethyl-3-oxo-4-(4-(trifluoromethyl)benzyl)-3,4-dihydro-2H-benzo[b][1,4]oxazine-6-carboxamide]
13 | 25 to 100 | CC1(C)Oc2ccc(C(=O)NO)cc2N(Cc2ccc(-c3ccccc3)cc2)C1=O [Compound I-306, 4-([1,1′-biphenyl]-4-ylmethyl)-N-hydroxy-2,2-dimethyl-3-oxo-3,4-dihydro-2H-benzo[b][1,4]oxazine-6-carboxamide]
14 | 25 to 100 | CC1(C)Oc2ccc(C(=O)NO)cc2N(Cc2nc(-c3ccccc3)sc2Cl)C1=O [Compound I-308, 4-((5-chloro-2-phenylthiazol-4-yl)methyl)-N-hydroxy-2,2-dimethyl-3-oxo-3,4-dihydro-2H-benzo[b][1,4]oxazine-6-carboxamide]
15 | > 1000 | CC1(C)Oc2ccc(C(=O)NO)cc2N(Cc2nc(-c3ccccc3)sc2Cc2ccccc2)C1=O [Compound I-309, 4-((5-benzyl-2-phenylthiazol-4-yl)methyl)-N-hydroxy-2,2-dimethyl-3-oxo-3,4-dihydro-2H-benzo[b][1,4]oxazine-6-carboxamide]
16 | 25 to 100 | CC1(C)Oc2ccc(C(=O)NO)cc2N(Cc2ccc(Cl)c(Cl)c2)C1=O [Compound I-312, 4-(3,4-dichlorobenzyl)-N-hydroxy-2,2-dimethyl-3-oxo-3,4-dihydro-2H-benzo[b][1,4]oxazine-6-carboxamide]
17 | 25 to 100 | CC1(C)Oc2ccc(C(=O)NO)cc2N(Cc2ccc3ccccc3c2)C1=O [Compound I-317, N-hydroxy-2,2-dimethyl-4-(naphthalen-2-ylmethyl)-3-oxo-3,4-dihydro-2H-benzo[b][1,4]oxazine-6-carboxamide]
18 | ≤ 25 | CC1(C)Oc2ccc(C(=O)NO)cc2N(C/C=C/c2ccccc2)C1=O [Compound I-318, 4-cinnamyl-N-hydroxy-2,2-dimethyl-3-oxo-3,4-dihydro-2H-benzo[b][1,4]oxazine-6-carboxamide]
19 | 25 to 100 | CC1(C)Oc2ccc(C(=O)NO)cc2N(Cc2cccc(OC(F)(F)F)c2)C1=O [Compound I-319, N-hydroxy-2,2-dimethyl-3-oxo-4-(3-(trifluoromethoxy)benzyl)-3,4-dihydro-2H-benzo[b][1,4]oxazine-6-carboxamide]
20 | ≤ 25 | CC1(C)Oc2ccc(C(=O)NO)cc2N(Cc2cc(-c3ccccc3)on2)C1=O [Compound I-320, N-hydroxy-2,2-dimethyl-3-oxo-4-((5-phenylisoxazol-3-yl)methyl)-3,4-dihydro-2H-benzo[b][1,4]oxazine-6-carboxamide]
21 | ≤ 25 | CC1(C)Oc2ccc(C(=O)NO)cc2N(Cc2ccc(C(F)(F)F)cc2F)C1=O [Compound I-321, 4-(2-fluoro-4-(trifluoromethyl)benzyl)-N-hydroxy-2,2-dimethyl-3-oxo-3,4-dihydro-2H-benzo[b][1,4]oxazine-6-carboxamide]
22 | 25 to 100 | CC1(C)Oc2ccc(C(=O)NO)cc2N(Cc2ccc(OC(F)(F)F)cc2F)C1=O [Compound I-322, 4-(2-fluoro-4-(trifluoromethoxy)benzyl)-N-hydroxy-2,2-dimethyl-3-oxo-3,4-dihydro-2H-benzo[b][1,4]oxazine-6-carboxamide]
23 | ≤ 25 | O=C(NO)c1ccc2c(c1)N(Cc1ccc3ccccc3c1)C(=O)CO2 [Compound I-323, N-hydroxy-4-(naphthalen-2-ylmethyl)-3-oxo-3,4-dihydro-2H-benzo[b][1,4]oxazine-6-carboxamide]
24 | 25 to 100 | O=C(NO)c1ccc2c(c1)N(Cc1cnc3[nH]ccc3c1)C(=O)CO2 [Compound I-324, 4-((1H-pyrrolo[2,3-b]pyridin-5-yl)methyl)-N-hydroxy-3-oxo-3,4-dihydro-2H-benzo[b][1,4]oxazine-6-carboxamide]
25 | ≤ 25 | Cc1nn(C)c2ncc(CN3C(=O)COc4ccc(C(=O)NO)cc43)cc12 [Compound I-325, 4-((1,3-dimethyl-1H-pyrazolo[3,4-b]pyridin-5-yl)methyl)-N-hydroxy-3-oxo-3,4-dihydro-2H-benzo[b][1,4]oxazine-6-carboxamide]
26 | 25 to 100 | Cc1cccc2nc(CN3C(=O)COc4ccc(C(=O)NO)cc43)cc(=O)n12 [Compound I-327, N-hydroxy-4-((6-methyl-4-oxo-4H-pyrido[1,2-a]pyrimidin-2-yl)methyl)-3-oxo-3,4-dihydro-2H-benzo[b][1,4]oxazine-6-carboxamide]
27 | ≤ 25 | CC(C)Oc1ccc(CN2C(=O)COc3ccc(C(=O)NO)cc32)cc1 [Compound I-330, N-hydroxy-4-(4-isopropoxybenzyl)-3-oxo-3,4-dihydro-2H-benzo[b][1,4]oxazine-6-carboxamide]
28 | ≤ 25 | COc1ccc(CN2C(=O)COc3ccc(C(=O)NO)cc32)cn1 [Compound I-332, N-hydroxy-4-((6-methoxypyridin-3-yl)methyl)-3-oxo-3,4-dihydro-2H-benzo[b][1,4]oxazine-6-carboxamide]
29 | ≤ 25 | O=C(NO)c1ccc2c(c1)N(Cc1cnc3ccccc3c1)C(=O)CO2 [Compound I-333, N-hydroxy-3-oxo-4-(quinoIin-3-ylmethyl)-3,4-dihydro-2H-benzo[b][1,4]oxazine-6-carboxamide]

Row | Compound | IC50 [nM]
30 | O=C(NO)c1ccc2c(c1)N(Cc1ccc(OC3CCC3)cc1)C(=O)CO2 [Compound I-331, 4-(4-cyclobutoxybenzyl)-N-hydroxy-3-oxo-3,4-dihydro-2H-benzo[b][1,4]oxazine-6-carboxamide] | ≤ 25
